Where no end group is shown, it is not given here.

These results are taken from US10434170B2, “Immunoregulatory vaccine” (S-TARGET THERAPEUTICS GMBH, priority 2012, dated 2019).

The assay concerns autologous little gastrin (G17RM). The experiment in a line: Cynomolgus monkeys immunized, serum IgG (MSD multiplex ELISA) against autologous little gastrin. The assay is classed as in vivo, rhesus and cynomolgus monkey. The following applies: 6 Cynomolgus monkeys, immunized d0, d14, d28; serum d0-d56. The source says:
Time curve IgG anti G17 induction, after three injections with the vaccine (TYG100_2RM) on d0, d14 and d28. • A significant IgG induction was seen against the ScFV-coil1 and G17RM and G17H. No response was seen against a control peptide of similar molecular weight or when the animals were immunized with G17RM_2 without the presence of warhead.
6 Cynomolgus monkeys were immunized with TYG100_2RM and 6 were immunized with G17RM_2-coil on d0, d14 and d28. On d0, d14, d28, 42 and d56 serum was analyzed for the presence of IgG antibodies against autologous little gastrin (G17RM), little gastrin from humans (G17H), an irrelevant control peptide of similar MW as gastrin (control peptide) or against warhead (ScFV-coil1) using the multiplex ELISA system of Meso Scale Discovery (MSD) according to the MSD manual. […] The response against G17RM after three immunizations was 75% of the response against ScFV-coil1. This is remarkable since G17RM is a 100% autologous protein of only ˜1.2 kDa whereas ScFV-coil1 is a 100% allogeneic protein of >30 kDa. The anti G17RM antibodies cross reacted strongly with G17H. There was no response against G17RM when the G17RM_2-coil peptide was used without the warhead.
A general note: ELISA stands for enzyme-linked immunosorbent assay.

For “G17RM_2-coil: SEQ ID 103: two rhesus monkey gastrin peptides of SEQ ID 99, branched linker and pepK coil (EGPWMEEEEAAYGGGK(EGPWMEEEEAAYGGG)GGSGGKVSALKEKVSALKEKVSALKEKVSALKEKVSALKE)”, the “IgG response to G17RM” value is given as “no response”.
